Test results from ChEMBL document CHEMBL1201862, “PubChem BioAssay data set” (2004).
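The compound was tested at five concentrations on cells cultured in 96-well plates, with a 48-hour exposure period. GI50: concentration for 50% inhibition of growth.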 Activity calls are given as the source filed them. Rule as the data show it: active = GI50 up to about 1.1 µM and inactive = higher.

Key:
Test in all cases: DTP human tumour cell line panel, 48 h
CCRF-CEM = tested on: CCRF-CEM
EKVX = tested on: EKVX
HCC 2998 = tested on: HCC 2998
HCT-116 = tested on: HCT-116
HCT-15 = tested on: HCT-15
HOP-62 = tested on: HOP-62
IGROV-1 = tested on: IGROV-1
K562 = tested on: K562
MDA-MB-231 = tested on: MDA-MB-231
MDA-MB-435 = tested on: MDA-MB-435
NCI-H23 = tested on: NCI-H23
NCI-H460 = tested on: NCI-H460
PC-3 = tested on: PC-3
SF-268 = tested on: SF-268
SF-295 = tested on: SF-295
SN12C = tested on: SN12C
SW-620 = tested on: SW-620
TK-10 = tested on: TK-10
UACC-62 = tested on: UACC-62
UO-31 = tested on: UO-31

Row | SMILES | GI50 (CCRF-CEM) | GI50 (EKVX) | GI50 (HCC 2998) | GI50 (HCT-116) | GI50 (HCT-15) | GI50 (HOP-62) | GI50 (IGROV-1) | GI50 (K562) | GI50 (MDA-MB-231) | GI50 (MDA-MB-435) | GI50 (NCI-H23) | GI50 (NCI-H460) | GI50 (PC-3) | GI50 (SF-268) | GI50 (SF-295) | GI50 (SN12C) | GI50 (SW-620) | GI50 (TK-10) | GI50 (UACC-62) | GI50 (UO-31)
1 | Nc1ncc(Cc2nc3ccccc3s2)s1 | 30.3 µM (inactive) | 30 µM (inactive) | > 100 µM (inactive) | 52.1 µM (inactive) | > 100 µM | > 100 µM (inactive) | 63.8 µM (inactive) | 56.4 µM (inactive) | 69.8 µM (inactive) | 39.2 µM (inactive) | > 10 µM (inactive) | 73.6 µM (inactive) | 63.5 µM (inactive) | > 100 µM (inactive) | 40.9 µM (inactive) | > 100 µM (inactive) | > 100 µM (inactive) | 85.5 µM (inactive) | 54 µM (inactive) | 68.9 µM (inactive)
2 | NNC(=O)c1ccccc1Nc1ccccc1C(=O)NN | > 100 µM (inactive) | > 100 µM (inactive) | > 100 µM (inactive) | > 100 µM (inactive) | > 100 µM | > 100 µM (inactive) | > 100 µM (inactive) | > 100 µM (inactive) | > 100 µM (inactive) | > 100 µM (inactive) | > 100 µM (inactive) | > 100 µM (inactive) | > 100 µM (inactive) | > 100 µM (inactive) | > 100 µM (inactive) | > 100 µM (inactive) | > 100 µM (inactive) | > 100 µM (inactive) | > 100 µM (inactive) | > 100 µM (inactive)
3 | CCN(CC)c1ccc(C2Nc3ccc4ccccc4c3C3=C2C(=O)CCC3)cc1 (centres undefined) | > 100 µM (inactive) | > 100 µM (inactive) | > 100 µM (inactive) | 25.3 µM (inactive) | > 100 µM | 20.4 µM (inactive) | – | > 100 µM (inactive) | 11.7 µM (inactive) | 54.6 µM (inactive) | 75 µM (inactive) | > 100 µM (inactive) | 39.3 µM (inactive) | 27.5 µM (inactive) | 24.6 µM (inactive) | 42 µM (inactive) | > 100 µM (inactive) | – | 24.7 µM (inactive) | 26.1 µM (inactive)
4 | OC1C2[C@@H](O)CCCN2C[C@@H](O)[C@H]1O (some centres undefined) | > 100 µM (inactive) | > 100 µM (inactive) | > 100 µM (inactive) | > 100 µM (inactive) | > 100 µM | > 100 µM (inactive) | > 100 µM (inactive) | > 100 µM (inactive) | > 100 µM (inactive) | > 100 µM (inactive) | > 100 µM (inactive) | > 100 µM (inactive) | > 100 µM (inactive) | > 100 µM (inactive) | > 100 µM (inactive) | > 100 µM (inactive) | > 100 µM (inactive) | > 100 µM (inactive) | > 100 µM (inactive) | > 100 µM (inactive)
5 | C[C@H](CCC(=O)O)[C@H]1CC[C@H]2[C@@H]3[C@H](O)C[C@@H]4C[C@H](O)CC[C@]4(C)[C@H]3CC[C@]12C [CHENODIOL] | 33.1 µM (inactive) | 33.8 µM (inactive) | 28.9 µM (inactive) | 33.8 µM (inactive) | 32.1 µM | 37.2 µM (inactive) | 27 µM (inactive) | 35.6 µM (inactive) | 49.3 µM (inactive) | 37 µM (inactive) | 27.9 µM (inactive) | 27.1 µM (inactive) | 36.4 µM (inactive) | 44.1 µM (inactive) | – | 43.2 µM (inactive) | 41.7 µM (inactive) | 26.2 µM (inactive) | 36.6 µM (inactive) | 21.4 µM (inactive)
6 | N=C(N)NC(=N)Nc1ccc(S(N)(=O)=O)cc1 | > 100 µM (inactive) | > 100 µM (inactive) | 6.27 µM (inactive) | > 100 µM (inactive) | > 100 µM | > 100 µM (inactive) | > 100 µM (inactive) | > 100 µM (inactive) | > 100 µM (inactive) | > 100 µM (inactive) | > 100 µM (inactive) | > 100 µM (inactive) | > 100 µM (inactive) | > 100 µM (inactive) | > 100 µM (inactive) | > 100 µM (inactive) | > 100 µM (inactive) | > 100 µM (inactive) | > 100 µM (inactive) | > 100 µM (inactive)
7 | COc1ccc(C(C)c2cc3c(cc2OC)OCO3)cc1 (centres undefined) | 0.131 µM (active) | 17.4 µM (inactive) | 0.193 µM (active) | 0.111 µM (active) | 0.0723 µM | 0.124 µM (active) | 0.104 µM (active) | 0.0389 µM (active) | 0.112 µM (active) | 0.0175 µM (active) | 0.169 µM (active) | 0.122 µM (active) | 0.0715 µM (active) | 0.614 µM (active) | 0.0611 µM (active) | 0.378 µM (active) | 0.0828 µM (active) | 8.95 µM (inactive) | 0.2 µM (active) | 0.272 µM (active)
8 | O=C(C(Cl)=C(N1CCCCC1)N1CCCCC1)C(Cl)Cl | > 100 µM (inactive) | > 100 µM (inactive) | > 100 µM (inactive) | > 100 µM (inactive) | > 100 µM | > 100 µM (inactive) | > 100 µM (inactive) | > 100 µM (inactive) | > 100 µM (inactive) | > 100 µM (inactive) | > 100 µM (inactive) | > 100 µM (inactive) | > 100 µM (inactive) | > 100 µM (inactive) | > 100 µM (inactive) | > 100 µM (inactive) | > 100 µM (inactive) | > 100 µM (inactive) | > 100 µM (inactive) | > 100 µM (inactive)
9 | COc1cc(OC2OC(COC(=O)c3cc(O)c(O)c(O)c3)C(O)C(O)C2O)ccc1O (centres undefined) | 42.2 µM (inactive) | > 100 µM (inactive) | > 100 µM (inactive) | > 100 µM (inactive) | > 100 µM | > 100 µM (inactive) | > 100 µM (inactive) | 32.7 µM (inactive) | 34.5 µM (inactive) | 24.4 µM (inactive) | > 100 µM (inactive) | > 100 µM (inactive) | 26.2 µM (inactive) | 82 µM (inactive) | 78.7 µM (inactive) | 77.8 µM (inactive) | 40.3 µM (inactive) | 76.7 µM (inactive) | – | 33.2 µM (inactive)
10 | CC1(C)OC2C(O)C(CO)OC2(C(F)F)O1 (centres undefined) | > 100 µM (inactive) | > 100 µM (inactive) | > 100 µM (inactive) | > 100 µM (inactive) | > 100 µM | > 100 µM (inactive) | > 100 µM (inactive) | > 100 µM (inactive) | > 100 µM (inactive) | > 63.5 µM (inactive) | – | > 100 µM (inactive) | > 100 µM (inactive) | > 100 µM (inactive) | > 100 µM (inactive) | > 100 µM (inactive) | > 100 µM (inactive) | > 100 µM (inactive) | > 100 µM (inactive) | > 31.3 µM (inactive)
11 | CCN(CC)CC1CN=C(N)O1 (centres undefined) | > 100 µM (inactive) | > 100 µM (inactive) | > 100 µM (inactive) | > 100 µM (inactive) | > 100 µM | > 100 µM (inactive) | > 100 µM (inactive) | > 100 µM (inactive) | > 100 µM (inactive) | > 100 µM (inactive) | > 100 µM (inactive) | > 100 µM (inactive) | > 100 µM (inactive) | – | > 100 µM (inactive) | > 100 µM (inactive) | > 100 µM (inactive) | – | > 100 µM (inactive) | > 100 µM (inactive)
12 | CC1(O)Oc2ccc3ccccc3c2C=C1C(N)=O (centres undefined) | 86.5 µM (inactive) | 54 µM (inactive) | > 100 µM (inactive) | > 100 µM (inactive) | 53.7 µM | 36.7 µM (inactive) | 79.8 µM (inactive) | > 100 µM (inactive) | 38.9 µM (inactive) | > 100 µM (inactive) | > 100 µM (inactive) | 61.1 µM (inactive) | 64.9 µM (inactive) | 71.9 µM (inactive) | > 100 µM (inactive) | – | > 100 µM (inactive) | > 100 µM (inactive) | > 100 µM (inactive) | > 100 µM (inactive)
13 | COP(=O)(OC)/C(=C/c1c[nH]c2ccccc12)C(=O)O | > 100 µM (inactive) | > 100 µM (inactive) | > 100 µM (inactive) | > 100 µM (inactive) | > 100 µM | > 100 µM (inactive) | > 100 µM (inactive) | > 100 µM (inactive) | > 100 µM (inactive) | > 100 µM (inactive) | > 100 µM (inactive) | > 100 µM (inactive) | > 100 µM (inactive) | – | > 100 µM (inactive) | > 100 µM (inactive) | > 100 µM (inactive) | > 100 µM (inactive) | > 100 µM (inactive) | > 100 µM (inactive)
14 | OC1CCN2Cc3ccccc3N=C12 (centres undefined) | > 100 µM (inactive) | > 100 µM (inactive) | > 100 µM (inactive) | > 100 µM (inactive) | > 100 µM | > 100 µM (inactive) | – | > 100 µM (inactive) | > 100 µM (inactive) | > 100 µM (inactive) | > 100 µM (inactive) | > 100 µM (inactive) | > 100 µM (inactive) | > 100 µM (inactive) | > 100 µM (inactive) | > 100 µM (inactive) | > 100 µM (inactive) | > 100 µM (inactive) | > 100 µM (inactive) | > 100 µM (inactive)
15 | CNC(=S)NN=C1NCCCCN1 | > 100 µM (inactive) | > 100 µM (inactive) | > 100 µM (inactive) | > 100 µM (inactive) | > 100 µM | > 100 µM (inactive) | > 100 µM (inactive) | > 100 µM (inactive) | > 100 µM (inactive) | > 100 µM (inactive) | > 100 µM (inactive) | > 100 µM (inactive) | > 100 µM (inactive) | > 100 µM (inactive) | > 100 µM (inactive) | – | > 100 µM (inactive) | > 100 µM (inactive) | > 100 µM (inactive) | > 100 µM (inactive)
